Measured values as given in US20240317683A1, “METHODS OF TREATING MOOD DISORDERS” (priority 2020, published 2024).
Counter-ions that a name gives are not always drawn. Like-named read-outs stand apart in the source and are kept apart here.

Tests used:
[1] = Metabolic stability in rat liver microsomes (RLM); format: in vitro ADME; conditions: both sexes, pooled rat liver microsomes, pH 7.4, NADPH
Experimental: RLM Stability. Pooled RLM from adult male and female donors (Xenotech R1000) were used. Microsomal incubations were carried out in multi-well plates. […] Control incubations were performed by replacing the NADPH-cofactor system with PBS. Test compounds (1 μM, final solvent concentration 1.0%) were incubated with microsomes at 37° C. with constant shaking. Six time points over 60 minutes were analyzed, with 60 μL aliquots of the reaction mixture being drawn at each time point.

[2] = tested on: monoamine oxidase A and B (MAO-A and MAO-B); experiment: Stability in the presence of monoamine oxidases (human liver mitochondria); format: in vitro ADME; conditions: for MAO stability (in words): human liver mitochondria preparation; for half-life at 1 μM / microsomal CLint at 1 μM: human liver mitochondria, pH 7.4; for half-life at 1 μM / microsomal CLint at 1 μM / Remaining (t = 60 min): human mitochondrial preparation, 1 μM
Experimental: Liver Mitochondria Incubations. Human liver mitochondria (Xenotech H0610.M) were used. Mitochondrial incubations were carried out in multi-well plates. […] Six time points over 60 minutes were analyzed.

[3] = target: serotonin transporter (SERT) (Homo sapiens (Human), UniProt P31645); experiment: SERT fluorescent substrate uptake inhibition in transfected HEK293 cells; format: cell-based; conditions: HEK293 cells expressing SERT
Experimental: SERT Uptake Inhibition. The ability of test compounds to block monoamine uptake by SERT was determined using the Neurotransmitter Transporter Uptake Assay Kit manufactured by Molecular Devices (Cat #R8173). Briefly, stably transfected HEK293 cells expressing SERT were grown and plated into 384-well plates at a concentration of 20,000 cells per well. Plates were then incubated for 16-20 h at 37° C. and 5% CO2. The medium was then aspirated and replaced with 25 μL of assay buffer (20 mM HEPES in HBSS, containing 0.1% BSA) containing the test compounds at the appropriate concentrations. Plates were then centrifuged at 300 rpm for 15 s and then incubated at 37° C. for 30 minutes. At this time, 25 μL of the proprietary fluorescent dye solution was added, the plates were incubated at 37°° C. for 60 minutes, and then fluorescence was quantified on a plate reader (excitation wavelength =440 nm, emission wavelength=520 nm). The proprietary dye solution contains a mixture of 1) a fluorescent dye (dye 1) that mimics the endogenous substrate of SERT and is thereby actively transported to the intracellular compartment in the absence of an inhibitor and 2) a masking dye that inhibits the fluorescence of dye 1 in the extracellular compartment. Therefore, the overall fluorescence of the system increases as the fluorescent dye is transported into the cells.

[4] = Stability in rat brain homogenate; format: in vitro ADME, Sprague Dawley rats; conditions: for half-life at 1 μM: male, Sprague Dawley; for half-life at 1 μM / % Compound Remaining (after 120 min): rat brain homogenate, 37° C., 1 μM
Experimental: Rat Brain Homogenate Stability. Frozen rat brain homogenate (pooled from male Sprague Dawley rats, BioreclamationIVT, RATOOBRAINMZA) was thawed in a water bath at 37° C. immediately prior to use. Positive controls and test compounds (final concentration in incubation medium=1 μM for test compounds and 2 μM for controls, all with 2% DMSO) were incubated in duplicate for each time point (0, 10, 30, 60, and 120 min) in the rat brain homogenate at a total reaction volume of 100 μL at 37° C. At the end of each incubation period, reactions were immediately quenched with 400 μL of acetonitrile containing internal standard (200 ng/ml tolbutamine and 200 ng/ml labetalol) and mixed thoroughly. Plates were then sealed, shaken for 20 min, and centrifuged at 4,000 rpm and 4° C. for 20 min. Aliquots of 50 μL of each supernatant were diluted into 100 uL of water and the mixtures were then shaken again for 10 min.

[5] = Pharmacokinetics in mice, brain; format: in vivo, C57BL/6 mice; conditions: for half-life / Cmax / Tmax / AUC0-last: mouse brain; for F: mouse, based on brain AUC0-last
Experimental: Animals. Male C57BL/6 mice, aged 8-12 weeks, were used in these studies. Four mice were housed in each cage. Temperature and humidity were maintained at 22±3° C. and 30-70%, respectively, and illumination was controlled to give a 12 h light and 12 h dark cycle. Temperature and humidity were recorded by an auto-controlled data logger system. All animals were provided laboratory rodent diet. Reverse osmosis water treated with ultraviolet light was provided ad libitum. Animals were randomly assigned to treatment groups.
Drugs. Compounds 4 and 5 were prepared as described above. All other compounds were commercially obtained. Test compounds were used as the hydrogen fumarate (1 and 2) or hydrochloride (3, 4, and 5) salts and were dissolved in a vehicle consisting of normal saline. They were then administered intravenously (IV) via the tail vein, subcutaneously (SC), or orally (PO) via gavage at a dose of 1 or 10 mg/kg (calculated based on the free base) and at a volume of 5 ml/kg body weight.
Sample Collection and Bioanalysis. Blood samples (approximately 60 μL) were collected under light isoflurane anesthesia (Surgivet®) from the retro orbital plexus at 0.08, 0.25, 0.5, 1, 2, 4, 8, and 24 h (4 animals per time point). Immediately after blood collection, plasma was harvested by centrifugation at 4,000 rpm for 10 min at 4° C. and samples were stored at −70±10° C. until bioanalysis. Following blood collection, animals were immediately sacrificed, the abdominal vena-cava was cut open, and the whole body was perfused from the heart using 10 mL of normal saline, and brain samples were collected from all animals. After isolation, brain samples were rinsed three times in ice-cold normal saline (for 5-10 seconds/rinse using ˜5-10 mL normal saline in disposable petri dish for each rinse) and dried on blotting paper. Brain samples were homogenized using ice-cold phosphate-buffered saline (pH 7.4). Total homogenate volume was three times the tissue weight. All homogenates were stored at −70±10° C. until bioanalysis. For bioanalysis, 25 μL aliquots of plasma/brain study samples or spiked plasma/brain calibration standards were added to individual pre-labeled micro-centrifuge tubes followed by 100 μL of an internal standard solution (glipizide, 500 ng/ml in acetonitrile) except for blanks, where 100 μL of acetonitrile was added. Samples were vortexed for 5 minutes and then centrifuged for 10 minutes at 4,000 rpm at 4° C. Following centrifugation, 100 μL of each clear supernatant was transferred to a 96 well plate and analyzed with a fit-for-purpose LC-MS/MS method, with authentic samples of each analyte used for calibration and identification.
Data Analysis. Pharmacokinetic parameters were estimated using the non-compartmental analysis tool of Phoenix® WinNonlin software (Ver 8.0).

[6] = male, C57BL/6, IV, 10 mg/kg, read-out: Cmax (C0 back-extrapolated to t = 0)
[7] = male, C57BL/6, oral, 10 mg/kg, read-out: Cmax
[8] = male, C57BL/6, SC, 1 mg/kg, read-out: Cmax
[9] = male, C57BL/6, SC, 10 mg/kg, read-out: Cmax

Compound	half-life at 1 μM [1]	microsomal CLint at 1 μM [1]	MAO stability (in words) [2]	half-life at 1 μM [2]	microsomal CLint at 1 μM [2]	Remaining (t = 60 min) [2]	IC50 [3]	SERT % Inhibition @ Max Dose [3]	stability in rat brain homogenate (in words) [4]	half-life at 1 μM [4]	% Compound Remaining (after 120 min) [4]	Tmax ([5]; male, C57BL/6, SC, 10 mg/kg)	Cmax [5, 9]	AUC0-last ([5]; SC, 10 mg/kg)	other results
CN(C)CCc1c[nH]c2ccccc12 [DMT, N,N-dimethyltryptamine, reference compound]	10.1 min	137 µL/min/mg	highly metabolized	17.1 min	135 µL/min/mg	8.9%	2960 nM	67.92%	highly unstable	5.1 min	0.0%	–	–	–	–
CCN(C)CCc1c[nH]c2ccccc12 [Compound 2, methylethyltryptamine]	0.9 min	1560 µL/min/mg	intermediate stability	> 145 min	< 15.9 µL/min/mg	84.5%	9130 nM	62.06%	high stability	> 289 min	76.5%	–	–	–	half-life ([5]; male, C57BL/6, IV, 10 mg/kg): 92.4 min; Cmax [5, 6]: 6250 ng/g; Tmax ([5]; male, C57BL/6, oral, 10 mg/kg): 30 min; half-life ([5]; male, C57BL/6, oral, 10 mg/kg): 451 min; Cmax [5, 7]: 957 ng/g; AUC0-last ([5]; IV, 10 mg/kg): 3,923.27 h*ng/g; AUC0-last ([5]; oral, 10 mg/kg): 1,988.41 h*ng/g; F ([5]; oral, 10 mg/kg): 51%
CCCN(CC)CCc1c[nH]c2ccc(F)cc12 [Compound 3, N-ethyl-N-(2-(5-fluoro-1H-indol-3-yl)ethyl) propan-1-amine hydrochloride]	3.2 min	428 µL/min/mg	highly stable	> 145 min	< 15.9 µL/min/mg	97.7%	–	–	high stability	> 289 min	103.3%	–	–	–	–
CN(C)CCc1c[nH]c2ccc(F)cc12 [Compound 5, 2-(5-fluoro-1H-indol-3-yl)-N,N-dimethylethan-1-amine hydrochloride]	9.2 min	151 µL/min/mg	highly metabolized	8.7 min	266 µL/min/mg	0.9%	–	–	highly unstable	2.7 min	0.0%	15 min	778 ng/g	376.09 ng·h/g	Tmax ([5]; male, C57BL/6, SC, 1 mg/kg): 4.8 min; Cmax [5, 8]: 22 ng/g
CCN(C)CCc1c[nH]c2ccc(F)cc12 [Compound 4, N-ethyl-2-(5-fluoro-1H-indol-3-yl)-N-methylethan-1-amine hydrochloride]	6.1 min	229 µL/min/mg	intermediate stability	> 145 min	< 15.9 µL/min/mg	75.0%	419 nM	77.45%	intermediate stability	183 min	62.0%	60 min	3510 ng/g	6,672.16 h*ng/g	half-life ([5]; male, C57BL/6, IV, 10 mg/kg): 56.4 min; Cmax [5, 6]: 7980 ng/g; Tmax ([5]; male, C57BL/6, SC, 1 mg/kg): 15 min; half-life ([5]; male, C57BL/6, SC, 1 mg/kg): 22.2 min; Cmax [5, 8]: 461 ng/g; half-life ([5]; male, C57BL/6, SC, 10 mg/kg): 49.2 min; Tmax ([5]; male, C57BL/6, oral, 10 mg/kg): 15 min; half-life ([5]; male, C57BL/6, oral, 10 mg/kg): 79.2 min; Cmax [5, 7]: 1400 ng/g; AUC0-last ([5]; IV, 10 mg/kg): 10,471.19 h*ng/g; AUC0-last ([5]; SC, 1 mg/kg): 320.97 ng·h/g; AUC0-last ([5]; oral, 10 mg/kg): 3,835.86 h*ng/g; F ([5]; SC, 1 mg/kg): 31%; F ([5]; SC, 10 mg/kg): 64%; F ([5]; oral, 10 mg/kg): 37%
CN(C)CCc1c[nH]c2cccc(O)c12 [Psilocin, psilocin, reference compound]	75.6 min	18.3 µL/min/mg	highly stable	> 145 min	< 15.9 µL/min/mg	112.1%	2040 nM	88.15%	intermediate stability	115 min	46.1%	–	–	–	clearance ([5]; male, C57BL/6, mouse brain table, IV, 1 mg/kg): 24.1 mL/min/kg; half-life ([5]; male, C57BL/6, IV, 1 mg/kg): 182 min; Cmax ([5]; male, C57BL/6, IV, 1 mg/kg, read-out: Cmax (C0 back-extrapolated to t = 0)): 1200 ng/g; Tmax ([5]; male, C57BL/6, oral, 1 mg/kg): 10.2 min; half-life ([5]; male, C57BL/6, oral, 1 mg/kg): 175 min; Cmax ([5]; male, C57BL/6, oral, 1 mg/kg, read-out: Cmax): 211 ng/g; AUC0-last ([5]; IV, 1 mg/kg): 702 ng·h/g; AUC0-last ([5]; oral, 1 mg/kg): 399 ng·h/g; F ([5]; oral, 1 mg/kg): 57%
CCN(C)CCc1c[nH]c2cccc(O)c12 [Compound 6]	50.1 min	27.7 µL/min/mg	highly stable	> 145 min	< 15.9 µL/min/mg	112.3%	3270 nM	84.02%	intermediate stability	53 min	20.9%	30 min	2920 ng/g	3,549.18 h*ng/g	half-life ([5]; male, C57BL/6, SC, 10 mg/kg): 64.2 min
